Laboratory results published in US7585859B2, “PDE4B inhibitors and uses therefor” (Plexxikon, Inc., priority 2004, dated 2009).
Like-named read-outs stand apart in the source and are kept apart here.

How the values were obtained:
PDE4D = molecular target: T1, PDE4D (Homo sapiens, UniProt Q08499); experiment: PDE4 IC50 determination by Scintillation Proximity Assay, PDE4D; format: biochemical
T1 construct: PDE4D: The catalytic domain of human PDE4B from S3 16-V692; His6 (N); thrombin cleavage site (N); made in house; host or cells: E. coli
Outline: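 Hydrolysis of [^3H]cAMP measured by SPA with yttrium silicate beads, which bind the [^3H]AMP product strongly and cAMP weakly. Enzyme at 80 ng/ml for PDE4B, 4 ng/ml for PDE4D; 30 min at 30°.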

[1] = tested on: TNF alpha production in LPS-stimulated human blood (Buffy coat); experiment: TNF alpha production by stimulation with LPS in whole blood cultures; format: cell-based
Outline: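 Human buffy coat blood, diluted 1:8 in RPMI with 2.5% heat-inactivated FBS, preincubated 1 h at 37 °C with serially 1:3-diluted compounds, then stimulated with LPS (100 ng/ml final) for 4 h. Supernatant TNFα quantified by sandwich ELISA, absorbance at 450 nm; IC50 values derived.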

[2] = tested on: TNFα levels in serum of LPS-challenged rats; experiment: Rat inhibition studies: serum TNFα after iv LPS challenge; format: in vivo; details: read-out: % inhibition r TNFα; for inhibition in vivo at 100 mg/kg: 100 mg/kg po
Description: All studies were done with male rats CD (SD) IGS BR (Crl) (Charles River, France), which were grouped in to 5 animal groups.
At the end of the acclimatization period, the non-fasted rats were weighed, individually identified on the tail with a permanent marker and administered by oral (po) or interperitoneal (ip) route with either vehicle, reference or test compound in a volume of 10 mL/kg adapted to the body weight. The animals were gathered in groups of 5 animals in a polystyrene labeled cage with sawdust covered floors. 2-hours after vehicle, reference or test substance administration, rats received an intravenous (iv) injection of 0.1 mg/kg LPS in a volume of 1 mL/kg of body weight. 2 h after LPS challenge (or as indicated in Tables 3B and 4B), blood samples were collected into tubes without anticoagulant by retro-orbital puncture under gas (isoflurane) anesthesia. Samples were allowed to clot at room temperature for 5 to 10 min then put on ice until there were prepared by centrifugation (6000×g for 3 min at 4° C.) and stored at −20° C. until use. TNFα levels were measured in serum samples in duplicate by ELISA technique according to the manufacturer's procedure (Rat TNFα kit Quantikine M (RTA00, R&D System, France)). Data are reported as percent decrease in observed TNFα levels versus TNFa levels observed for vehicle dosed animal groups.

[3] = Table 1B, Formula I compounds, read-out: IC50 PDE4D
[4] = Homo sapiens, Table 1B, Formula I compounds, read-out: IC50 h TNFα
[5] = po, 2 h, rat in vivo inhibition assay, 2 hr challenge delay
[6] = 2 h, rat, po, 2 hr challenge delay
[7] = human whole blood, LPS 100 ng/ml, read-out: IC 50 vs. indicated assay h TNFα
[8] = po, 2 h, rat in vivo, 2 hr challenge delay, percent decrease in TNFα versus vehicle
[9] = second part of Table 2B (2-23 to 2-103), column 5, column is PDE4D in first part, read-out: IC 50 vs. indicated assay h TNFα

T1 sequence (Q08499 380-756): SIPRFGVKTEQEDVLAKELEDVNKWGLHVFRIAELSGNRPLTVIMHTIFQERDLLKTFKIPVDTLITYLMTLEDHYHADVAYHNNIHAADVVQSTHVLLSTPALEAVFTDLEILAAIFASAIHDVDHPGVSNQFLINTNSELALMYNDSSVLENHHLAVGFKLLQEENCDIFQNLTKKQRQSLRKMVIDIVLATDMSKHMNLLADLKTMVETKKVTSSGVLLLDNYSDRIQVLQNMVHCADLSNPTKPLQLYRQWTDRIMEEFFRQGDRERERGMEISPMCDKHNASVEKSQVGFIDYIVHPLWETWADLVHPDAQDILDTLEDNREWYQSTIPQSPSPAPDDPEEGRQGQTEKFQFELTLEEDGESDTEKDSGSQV

SMILES | IC50 (PDE4D; [3]) | IC50 [1, 4] | inhibition in vivo at 50 mg [2, 6] | further results
N#Cc1c(Nc2ccccc2)sc(C(=O)C2CC2)c1N [Compound 1-28, 4-Amino-5-cyclopropanecarbonyl-2-phenylamino-thiophene-3-carbonitrile] | < 10 µM | < 10 µM | – | inhibition in vivo at 100 mg/kg [2, 5]: < 20%
COc1ccc(C(=O)c2sc(Nc3ccccc3)c(C#N)c2N)cc1 [Compound 1-31] | < 10 µM | < 10 µM | – | inhibition in vivo at 200 mg ([2]; 1 h, rat, 200 mg, po, 1 hr challenge delay): < 20%; inhibition in vivo at 100 mg/kg [2, 5]: > 20%
CCOC(=O)c1c(NC2CCCC2)sc(C(=O)c2ccc(OC)cc2)c1N [Compound 1-191, 4-Amino-2-cyclopentylamino-5-(4-methoxy-benzoyl)-thiophene-3-carboxylic acid ethyl ester] | < 10 µM | > 10 µM | < 20% | –
N#Cc1c(Nc2ccccc2)sc(C(=O)c2cc(-c3ccccc3)no2)c1N [Compound 1-192, 4-Amino-2-phenylamino-5-(3-phenyl-isoxazole-5-carbonyl)-thiophene-3-carbonitrile] | < 10 µM | < 10 µM | < 20% | –
CC(C)Nc1sc(C(=O)c2cc(-c3ccccc3)no2)c(N)c1C#N [Compound 1-205, 4-Amino-2-isopropylamino-5-(3-phenyl-isoxazole-5-carbonyl)-thiophene-3-carbonitrile] | < 10 µM | > 10 µM | – | inhibition in vivo at 100 mg/kg [2, 5]: < 20%
CC(C)Nc1sc(C(=O)c2cc(-c3ccc(Cl)cc3)no2)c(N)c1C#N [Compound 1-212, 4-Amino-5-[3-(4-chloro-phenyl)-isoxazole-5-carbonyl]-2-isopropylamino-thiophene-3-carbonitrile] | > 10 µM | > 10 µM | – | inhibition in vivo at 90 mg ([2]; 2 h, rat, 90 mg, po, 2 hr challenge delay): > 20%
CC(C)CNc1sc(C(=O)c2cc(-c3ccccc3)no2)c(N)c1C(N)=O [Compound 1-236, 4-Amino-2-isobutylamino-5-(3-phenyl-isoxazole-5-carbonyl)-thiophene-3-carboxylic acid amide] | < 10 µM | > 10 µM | > 20% | inhibition in vivo at 50 mg ([2]; 2 h, rat, ip, 2 hr challenge delay): > 20%
NC(=O)c1c(NC2CCCC2)sc(C(=O)c2cc(-c3ccccc3)no2)c1N [Compound 1-251, 4-Amino-2-cyclopentylamino-5-(3-phenyl-isoxazole-5-carbonyl)-thiophene-3-carboxylic acid amide] | < 10 µM | > 10 µM | > 20% | –
Nc1nc(Nc2ccccc2F)sc1C(=O)c1cc(-c2ccccc2)no1 [Compound 2-6, [4-Amino-2-(2-fluoro-phenylamino)-thiazol-5-yl]-(3-phenyl-isoxazol-5-yl)-methanone] | – | – | – | IC50 (PDE4D; first part of Table 2B (2-1 to 2-22), read-out: IC 50 vs. indicated assay PDE4D): < 10 µM; IC50 [1, 7]: > 10 µM; inhibition in vivo at 100 mg/kg [2, 8]: > 20%
Nc1nc(Nc2ccc(Cl)cc2)sc1C(=O)c1cccc(C(F)(F)F)c1 [Compound 2-23, [4-Amino-2-(4-chloro-phenylamino)-thiazol-5-yl]-(3-trifluoromethyl-phenyl)-methanone] | – | – | – | IC50 (PDE4D; [9]): < 10 µM; IC50 [1, 7]: > 10 µM; inhibition in vivo at 100 mg/kg [2, 8]: < 20%
Nc1nc(NC2CCCC2)sc1C(=O)c1cccc(Cl)c1 [Compound 2-80, (4-Amino-2-cyclopentylamino-thiazol-5-yl)-(3-chloro-phenyl)-methanone] | – | – | – | IC50 (PDE4D; [9]): < 10 µM; IC50 [1, 7]: < 10 µM; inhibition in vivo at 100 mg/kg [2, 8]: > 20%
